The text below walks through data of patent publication US20040087633A1, “Methylidene oxazolidinone compound and preparation method thereof” (Korea Institute of Science and Technology, priority 2002, published 2004).

Values after ≈ are worked out from the molar mass of the structure shown.

What all share (assay): Anti-microbial activity test in vitro (agar dilution MIC)
A general note: In agar dilution the substance is mixed into plates at graded concentrations.

Test [1] relates to CRSA C6043. The class given is cell-based, Staphylococcus aureus. To be noted: CRSA C6043; Agar Dilution method, Mueller Hinton Agar, 18 hours at 37° C. A digest of the protocol:
(§1)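 Agar dilution MIC on Mueller Hinton agar with two-fold compound dilutions; plates incubated 18 h at 37 °C. MIC (μg/ml) read visually; linezolid and vancomycin run as comparators.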

Test [2] concerns MRSA C5100. The class given is cell-based, Staphylococcus aureus. To be noted: MRSA C5100; Agar Dilution method, Mueller Hinton Agar, 18 hours at 37° C. In short, it runs like this:
as §1

Test [3] concerns MRSA C6068. The class given is cell-based, Staphylococcus aureus. Conditions: MRSA C6068; Agar Dilution method, Mueller Hinton Agar, 18 hours at 37° C. In short, it runs like this:
as §1

For test [4], the system named is MRSA C2207. The class given is cell-based, Staphylococcus aureus. To be noted: MRSA C2207; Agar Dilution method, Mueller Hinton Agar, 18 hours at 37° C. In short, it runs like this:
as §1

Test [5] deals with CRSA C1062. The class given is cell-based, Staphylococcus aureus. Conditions: CRSA C1062; Agar Dilution method, Mueller Hinton Agar, 18 hours at 37° C. A digest of the protocol:
as §1

Test [6] concerns MSSA C2214. The class given is cell-based, Staphylococcus aureus. To be noted: MSSA C2214; Agar Dilution method, Mueller Hinton Agar, 18 hours at 37° C. A digest of the protocol: as §1
For test [7], the system named is MSSA C7142. The class given is cell-based, Staphylococcus aureus. To be noted: MSSA C7142; Agar Dilution method, Mueller Hinton Agar, 18 hours at 37° C. A digest of the protocol:
as §1

Test [8] relates to VRE C6488. The class given is cell-based, Enterococcus faecium. To be noted: VRE C6488; Agar Dilution method, Mueller Hinton Agar, 18 hours at 37° C. A digest of the protocol: as §1
Test [9] relates to VRE C6487. The class given is cell-based, Enterococcus faecium. Conditions: VRE C6487; Agar Dilution method, Mueller Hinton Agar, 18 hours at 37° C. A digest of the protocol:
as §1

The test system of test [10] is E. faecalis C6291. The class given is cell-based. Conditions: E. faecalis C6291; Agar Dilution method, Mueller Hinton Agar, 18 hours at 37° C. In short, it runs like this:
as §1

Test [11] has as its system S. pyogenes ATCC8668. The class given is cell-based. Conditions: S. pyogenes ATCC8668; Agar Dilution method, Mueller Hinton Agar, 18 hours at 37° C. A digest of the protocol:
as §1

Test [12] deals with S. epidermidis C2230. The class given is cell-based. Conditions: S. epidermidis C2230; Agar Dilution method, Mueller Hinton Agar, 18 hours at 37° C. In short, it runs like this: as §1
The test system of test [13] is S. pyogenes C6012. The class given is cell-based. To be noted: S. pyogenes C6012; Agar Dilution method, Mueller Hinton Agar, 18 hours at 37° C. In short, it runs like this: as §1
The test system of test [14] is S. pyogenes C6003. The class given is cell-based. To be noted: S. pyogenes C6003; Agar Dilution method, Mueller Hinton Agar, 18 hours at 37° C. A digest of the protocol:
as §1

Test [15] deals with E. faecium C6301. The class given is cell-based. To be noted: E. faecium C6301; Agar Dilution method, Mueller Hinton Agar, 18 hours at 37° C. A digest of the protocol: as §1
The test system of test [16] is E. faecalis C6288. The class given is cell-based. Conditions: E. faecalis C6288; Agar Dilution method, Mueller Hinton Agar, 18 hours at 37° C. In short, it runs like this:
as §1

Test [17] concerns S. epidermidis ATCC12228. The class given is cell-based. To be noted: S. epidermidis ATCC12228; Agar Dilution method, Mueller Hinton Agar, 18 hours at 37° C. A digest of the protocol:
as §1

Test [18] has as its system E. faecium C2252. The class given is cell-based. To be noted: E. faecium C2252; Agar Dilution method, Mueller Hinton Agar, 18 hours at 37° C. In short, it runs like this:
as §1

Test [19] deals with E. faecalis ATCC29212. The class given is cell-based. To be noted: E. faecalis ATCC29212; Agar Dilution method, Mueller Hinton Agar, 18 hours at 37° C. A digest of the protocol: as §1
Test [20] relates to S. aureus ATCC 29213. The class given is cell-based. Conditions: Agar Dilution method, Mueller Hinton Agar, 18 hours at 37° C. In short, it runs like this: as §1
For test [21], the system named is S. epidermidis C2235. The class given is cell-based. To be noted: S. epidermidis C2235; Agar Dilution method, Mueller Hinton Agar, 18 hours at 37° C. In short, it runs like this: as §1

For the compound `CC(=O)NC[C@H]1CN(c2ccc(N3CCC(=C(C)C#N)CC3)c(F)c2)C(=O)O1` [Compound 16, N-[[(5S)-3-[3-fluoro-4-(4-(1-cyanoethylidene)piperidinyl)-phenyl]-2-oxo-5-oxazolidinyl]methyl]acetamide], the “Minimum inhibition concentration (MIC)” value in test [1], in test [2], in test [3], in [4], in test [5] and in [6] was 2 µg/mL (≈ 5.18 µM) in each case. Also, the “Minimum inhibition concentration (MIC)” value in test [7] came to 2 µg/mL (≈ 5.18 µM); in test [8], 1 µg/mL (≈ 2.59 µM); in test [9] it was 0.5 µg/mL (≈ 1.29 µM); in test [10] it was 2 µg/mL (≈ 5.18 µM); in test [11] it was 2 µg/mL (≈ 5.18 µM); in test [12], 2 µg/mL (≈ 5.18 µM). In addition, the “Minimum inhibition concentration (MIC)” value in test [13] was found to be 2 µg/mL (≈ 5.18 µM); in test [14], 0.5 µg/mL (≈ 1.29 µM); in test [15] it was 2 µg/mL (≈ 5.18 µM); in [16] it was 2 µg/mL (≈ 5.18 µM); in test [17], 0.5 µg/mL (≈ 1.29 µM); in test [18], 2 µg/mL (≈ 5.18 µM). Besides, the “Minimum inhibition concentration (MIC)” value in test [19], in [20] and in test [21] was 2 µg/mL (≈ 5.18 µM) each time.
For the compound `CC(=O)NC[C@H]1CN(c2ccc(N3CCC(=CC=O)CC3)c(F)c2)C(=O)O1` [Compound 17, N-[[(5S)-3-[3-fluoro-4-(4-(2-oxoethylidene)piperidinyl)-phenyl]-2-oxo-5-oxazolidinyl]methyl]acetamide], the “Minimum inhibition concentration (MIC)” value stood at 4 µg/mL (≈ 10.7 µM) in test [1]; 4 µg/mL (≈ 10.7 µM) in [2]; 4 µg/mL (≈ 10.7 µM) in [3]; 4 µg/mL (≈ 10.7 µM) in [4]; 8 µg/mL (≈ 21.3 µM) in test [5]; 8 µg/mL (≈ 21.3 µM) in test [6]. The “Minimum inhibition concentration (MIC)” value in [7] amounted to 4 µg/mL (≈ 10.7 µM); in [8], 8 µg/mL (≈ 21.3 µM); in test [9], 8 µg/mL (≈ 21.3 µM); in test [10], 8 µg/mL (≈ 21.3 µM); in test [11] it was 2 µg/mL (≈ 5.33 µM); in [12], 2 µg/mL (≈ 5.33 µM). Besides, the “Minimum inhibition concentration (MIC)” value in test [13] was found to be 1 µg/mL (≈ 2.66 µM); in [14], 8 µg/mL (≈ 21.3 µM); in test [15], 4 µg/mL (≈ 10.7 µM); in [16], 4 µg/mL (≈ 10.7 µM); in test [17], 1 µg/mL (≈ 2.66 µM); in test [18] it was 8 µg/mL (≈ 21.3 µM). Also, the figures for the “Minimum inhibition concentration (MIC)” value in test [19], in [20] and in [21] were 16 µg/mL (≈ 42.6 µM), 8 µg/mL (≈ 21.3 µM) and 2 µg/mL (≈ 5.33 µM), respectively.
Consider `CC(=O)NC[C@H]1CN(c2ccc(N3CCC(=CC=NO)CC3)c(F)c2)C(=O)O1` [Compound 18, N-[[(5S)-3-[3-fluoro-4-(4-(2-hydroxyiminoethylidene)-piperidinyl)phenyl]-2-oxo-5-oxazolidinyl]methyl]acetamide], for which the “Minimum inhibition concentration (MIC)” value in test [1] turned out to be 8 µg/mL (≈ 20.5 µM); in test [2], 4 µg/mL (≈ 10.2 µM); in [3], 4 µg/mL (≈ 10.2 µM); in test [4] it was 8 µg/mL (≈ 20.5 µM); in test [5], 8 µg/mL (≈ 20.5 µM); in [6] it was 8 µg/mL (≈ 20.5 µM). Also, the “Minimum inhibition concentration (MIC)” value was 8 µg/mL (≈ 20.5 µM) in test [7]; 4 µg/mL (≈ 10.2 µM) in [8]; 4 µg/mL (≈ 10.2 µM) in test [9]; 4 µg/mL (≈ 10.2 µM) in test [10]; 2 µg/mL (≈ 5.12 µM) in test [11]; 4 µg/mL (≈ 10.2 µM) in test [12]. The “Minimum inhibition concentration (MIC)” value in test [13] turned out to be 1 µg/mL (≈ 2.56 µM); in test [14], 4 µg/mL (≈ 10.2 µM); in test [15] it was 4 µg/mL (≈ 10.2 µM); in test [16], 4 µg/mL (≈ 10.2 µM); in test [17] it was 1 µg/mL (≈ 2.56 µM); in [18], 4 µg/mL (≈ 10.2 µM). Moreover, the “Minimum inhibition concentration (MIC)” value in [19] is 8 µg/mL (≈ 20.5 µM); in [20], 8 µg/mL (≈ 20.5 µM); in [21], 4 µg/mL (≈ 10.2 µM).
On to `CON=CC=C1CCN(c2ccc(N3C[C@H](CNC(C)=O)OC3=O)cc2F)CC1` [Compound 19, N-[[(5S)-3-[3-fluoro-4-(4-(2-methoxyiminoethylidene)-piperidinyl)phenyl]-2-oxo-5-oxazolidinyl]methyl]acetamide], for which the “Minimum inhibition concentration (MIC)” value worked out at 4 µg/mL (≈ 9.89 µM) in [1]; 4 µg/mL (≈ 9.89 µM) in [2]; 4 µg/mL (≈ 9.89 µM) in test [3]; 4 µg/mL (≈ 9.89 µM) in test [4]; 4 µg/mL (≈ 9.89 µM) in [5]; 8 µg/mL (≈ 19.8 µM) in test [6]. Moreover, the “Minimum inhibition concentration (MIC)” value in [7] came to 4 µg/mL (≈ 9.89 µM); in test [8], 4 µg/mL (≈ 9.89 µM); in test [9] it was 4 µg/mL (≈ 9.89 µM); in test [10], 4 µg/mL (≈ 9.89 µM); in test [11], 1 µg/mL (≈ 2.47 µM); in [12], 4 µg/mL (≈ 9.89 µM). Also, the “Minimum inhibition concentration (MIC)” value in [13] was 1 µg/mL (≈ 2.47 µM); in test [14], 2 µg/mL (≈ 4.95 µM); in test [15], 4 µg/mL (≈ 9.89 µM); in [16], 2 µg/mL (≈ 4.95 µM); in test [17], 1 µg/mL (≈ 2.47 µM); in test [18], 4 µg/mL (≈ 9.89 µM). Further, the entries for the “Minimum inhibition concentration (MIC)” value in test [19], in test [20] and in [21] were 4 µg/mL (≈ 9.89 µM), 8 µg/mL (≈ 19.8 µM) and 2 µg/mL (≈ 4.95 µM), respectively.
